Measurements as given in US9822126B1, “Substituted 1,2,3-triazol-1-yl-methyl-2,3-dihydro-2-methyl-6-nitroimidazo[2,1-b]oxazoles as anti-mycobacterial agents and a process for the preparation thereof” (priority 2014, dated 2017).
Values after ≈ are worked out from the molar mass of the structure shown. Where two headings read alike, the source gives them in different places.

Legend:
Assay in all cases: microbe, parasite or virus in culture
Type in all cases: cell-based
[1] = tested on: Rif^R: rifampicin resistant tuberculosis; details: Mycobacterium tuberculosis, read-out: MIC (Rif^R)
[2] = tested on: M. tuberculosis MDR (resistant to isoniazid and rifampicin); details: Mycobacterium tuberculosis
[3] = tested on: M. tuberculosis XDR (resistant to isoniazid, rifampicin, amikacin and moxifloxacin); details: Mycobacterium tuberculosis, 504 h, read-out: MIC XDR
[4] = read-out: MIC against multi and extensive-drug resistant strains

Row | SMILES | MIC [1] | MIC ([2]; 504 h, read-out: MIC MDR) | MIC [3] | MIC [2, 4] | MIC ([2]; read-out: MIC value)
1 | C[C@]1(Cn2cc(-c3ccc(F)cc3F)nn2)Cn2cc([N+](=O)[O-])nc2O1 [I5, (R)-2-((4-(2,4-Difluorophenyl)-1H-1,2,3-triazol-1-yl)methyl)-2-methyl-6-nitro-2,3-dihydroimidazo[2,1-b]oxazole] | 4 µg/mL (≈ 11 µM) | 1 µg/mL (≈ 2.76 µM) | 4 µg/mL (≈ 11 µM) |  | 
2 | C[C@]1(Cn2cc(-c3ccc(OC(F)(F)F)cc3)nn2)Cn2cc([N+](=O)[O-])nc2O1 [I1, (R)-2-Methyl-6-nitro-2-((4-(4-(trifluoromethoxy)phenyl)-1H-1,2,3-triazol-1-yl)methyl)-2,3-dihydroimidazo[2,1-b]oxazole] | 2 µg/mL (≈ 4.87 µM) | 2 µg/mL (≈ 4.87 µM) | 1 µg/mL (≈ 2.44 µM) |  | 
3 | C[C@]1(Cn2cc(-c3ccc(C(F)(F)F)cc3)nn2)Cn2cc([N+](=O)[O-])nc2O1 [I2, (R)-2-Methyl-6-nitro-2-((4-(4-(trifluoromethyl)phenyl)-1H-1,2,3-triazol-1-yl)methyl)-2,3-dihydroimidazo[2,1-b]oxazole] | 4 µg/mL (≈ 10.1 µM) | 2 µg/mL (≈ 5.07 µM) | 2 µg/mL (≈ 5.07 µM) |  | 
4 | C[C@]1(Cn2cc(COc3ccccc3F)nn2)Cn2cc([N+](=O)[O-])nc2O1 [I17, (R)-2-((4-((2-Fluorophenoxy)methyl)-1H-1,2,3-triazol-1-yl)methyl)-2-methyl-6-nitro-2,3-dihydroimidazo[2,1-b]oxazole] | 1 µg/mL (≈ 2.67 µM) | 0.5 µg/mL (≈ 1.34 µM) | 1 µg/mL (≈ 2.67 µM) | 0.5 µg/mL (≈ 1.34 µM) | < 1 µg/mL
5 | C[C@]1(Cn2cc(COc3ccc(Br)cc3)nn2)Cn2cc([N+](=O)[O-])nc2O1 [I11, (R)-2-((4-((4-Bromophenoxy)methyl)-1H-1,2,3-triazol-1-yl)methyl)-2-methyl-6-nitro-2,3-dihydroimidazo[2,1-b]oxazole] | 0.12 µg/mL (≈ 0.276 µM) | 0.12 µg/mL (≈ 0.276 µM) | 0.25 µg/mL (≈ 0.574 µM) | 0.12 µg/mL (≈ 0.276 µM) | < 1 µg/mL
6 | CC(C)c1ccc(OCc2cn(C[C@@]3(C)Cn4cc([N+](=O)[O-])nc4O3)nn2)cc1 [I18, (R)-2-((4-((4-Isopropylphenoxy)methyl)-1H-1,2,3-triazol-1-yl)methyl)-2-methyl-6-nitro-2,3-dihydroimidazo[2,1-b]oxazole] | 2 µg/mL (≈ 5.02 µM) | 1 µg/mL (≈ 2.51 µM) | 4 µg/mL (≈ 10 µM) |  | 
7 | C[C@]1(Cn2cc(CN3CCOCC3)nn2)Cn2cc([N+](=O)[O-])nc2O1 [I22, (R)-2-Methyl-2-((4-(morpholinomethyl)-1H-1,2,3-triazol-1-yl)methyl)-6-nitro-2,3-dihydroimidazo[2,1-b]oxazole] | 2 µg/mL (≈ 5.72 µM) | 2 µg/mL (≈ 5.72 µM) | 2 µg/mL (≈ 5.72 µM) |  | 
8 | C[C@]1(Cn2cc(COc3cccc(Cl)c3)nn2)Cn2cc([N+](=O)[O-])nc2O1 [I10, (R)-2-((4-((3-Chlorophenoxy)methyl)-1H-1,2,3-triazol-1-yl)methyl)-2-methyl-6-nitro-2,3-dihydroimidazo[2,1-b]oxazole] | 2 µg/mL (≈ 5.12 µM) | 2 µg/mL (≈ 5.12 µM) | 4 µg/mL (≈ 10.2 µM) |  | 
9 | C[C@]1(Cn2cc(-c3ccc(F)cc3)nn2)Cn2cc([N+](=O)[O-])nc2O1 [I3, (R)-2-((4-(4-Fluorophenyl)-1H-1,2,3-triazol-1-yl)methyl)-2-methyl-6nitro-2,3-dihydro imidazo[2,1-b]oxazole] | 2 µg/mL (≈ 5.81 µM) | 2 µg/mL (≈ 5.81 µM) | 2 µg/mL (≈ 5.81 µM) |  | 
10 | CCCCCc1cn(C[C@@]2(C)Cn3cc([N+](=O)[O-])nc3O2)nn1 [I7, (R)-2-[(4-Pentyl-1H-1,2,3-triazol-1-yl)methyl]-2,3-dihydro-2-methyl-6-nitroimidazo[2,1-b]oxazole] | 8 µg/mL (≈ 25 µM) | 2 µg/mL (≈ 6.24 µM) | 8 µg/mL (≈ 25 µM) |  | 
11 | Cc1ccc(OCc2cn(C[C@@]3(C)Cn4cc([N+](=O)[O-])nc4O3)nn2)cc1 [I12, (R)-2-Methyl-6-nitro-2-((4-((p-tolyloxy)methyl)-1H-1,2,3-triazol-1-yl)methyl)-2,3-dihydroimidazo[2,1-b]oxazole] | 8 µg/mL (≈ 21.6 µM) | 2 µg/mL (≈ 5.4 µM) | 8 µg/mL (≈ 21.6 µM) |  | 
12 | Cc1ccc(SCc2cn(C[C@@]3(C)Cn4cc([N+](=O)[O-])nc4O3)nn2)cc1 [I20, (R)-2-Methyl-6-nitro-2-((4-((p-tolylthio)methyl)-1H-1,2,3-triazol-1-yl)methyl)-2,3-dihydroimidazo[2,1-b]oxazole] | 0.25 µg/mL (≈ 0.647 µM) | 0.5 µg/mL (≈ 1.29 µM) | 2 µg/mL (≈ 5.18 µM) |  | < 1 µg/mL
13 | C[C@]1(Cn2cc(COc3ccc(OC(F)(F)F)cc3)nn2)Cn2cc([N+](=O)[O-])nc2O1 [I8, (R)-2-Methyl-6-nitro-2-((4-((4-(trifluoromethoxy)phenoxy)methyl)-1H-1,2,3-triazol-1-yl)methyl)-2,3-dihydroimidazo[2,1-b]oxazole] | 2 µg/mL (≈ 4.54 µM) | 2 µg/mL (≈ 4.54 µM) | 2 µg/mL (≈ 4.54 µM) |  | 
14 | CCc1ccc(OCc2cn(C[C@@]3(C)Cn4cc([N+](=O)[O-])nc4O3)nn2)cc1 [I15, (R)-2-((4-((4-Ethylphenoxy)methyl)-1H-1,2,3-triazol-1-yl)methyl)-2-methyl-6-nitro-2,3-dihydroimidazo[2,1-b]oxazole] | 4 µg/mL (≈ 10.4 µM) | 2 µg/mL (≈ 5.2 µM) | 4 µg/mL (≈ 10.4 µM) |  | 
15 | Cc1cc(-c2cn(C[C@@]3(C)Cn4cc([N+](=O)[O-])nc4O3)nn2)ccc1F [I4, (R)-2-((4-(4-Fluoro-3-methylphenyl)-1H-1,2,3-triazol-1-yl)methyl)-2-methyl-6-nitro-2,3-dihydroimidazo[2,1-b]oxazole] | 1 µg/mL (≈ 2.79 µM) | 4 µg/mL (≈ 11.2 µM) | 2 µg/mL (≈ 5.58 µM) |  | 
16 | Cc1ccc(OCCc2cn(C[C@@]3(C)Cn4cc([N+](=O)[O-])nc4O3)nn2)cc1 [I21, (R)-2-Methyl-6-nitro-2-((4-(2-(p-tolyloxy)ethyl)-1H-1,2,3-triazol-1-yl)methyl)-2,3-dihydroimidazo[2,1-b]oxazole] | 1 µg/mL (≈ 2.6 µM) | 0.25 µg/mL (≈ 0.65 µM) | 0.25 µg/mL (≈ 0.65 µM) | 0.25 µg/mL (≈ 0.65 µM) | < 1 µg/mL
17 | C[C@]1(Cn2cc(COc3ccc(C(F)(F)F)cc3)nn2)Cn2cc([N+](=O)[O-])nc2O1 [I9, (R)-2-Methyl-6-nitro-2-((4-((4-(trifluoromethyl)phenoxy)methyl)-1H-1,2,3-triazol-1-yl)methyl)-2,3-dihydroimidazo[2,1-b]oxazole] | 4 µg/mL (≈ 9.43 µM) | 4 µg/mL (≈ 9.43 µM) | 4 µg/mL (≈ 9.43 µM) |  | 
18 | Cc1cccc(OCc2cn(C[C@@]3(C)Cn4cc([N+](=O)[O-])nc4O3)nn2)c1 [I13, (R)-2-Methyl-6-nitro-2-((4-((m-tolyloxy)methyl)-1H-1,2,3-triazol-1-yl)methyl)-2,3-dihydroimidazo[2,1-b]oxazole] | 1 µg/mL (≈ 2.7 µM) | 1 µg/mL (≈ 2.7 µM) | 2 µg/mL (≈ 5.4 µM) |  | 
19 | C[C@]1(Cn2cc(COc3cccc(F)c3)nn2)Cn2cc([N+](=O)[O-])nc2O1 [I16, (R)-2-((4-((3-Fluorophenoxy)methyl)-1H-1,2,3-triazol-1-yl)methyl)-2-methyl-6-nitro-2,3-dihydroimidazo[2,1-b]oxazole] | 2 µg/mL (≈ 5.34 µM) | 2 µg/mL (≈ 5.34 µM) | 2 µg/mL (≈ 5.34 µM) |  | 
20 | C[C@]1(Cn2cc(-c3ccc(Oc4ccccc4)cc3)nn2)Cn2cc([N+](=O)[O-])nc2O1 [I6, (R)-2-Methyl-6-nitro-2-((4-(4-phenoxyphenyl)-1H-1,2,3-triazol-1-yl)methyl)-2,3-dihydroimidazo[2,1-b]oxazole] | 1 µg/mL (≈ 2.39 µM) | 1 µg/mL (≈ 2.39 µM) | 1 µg/mL (≈ 2.39 µM) |  | 
21 | C[C@]1(Cn2cc(COc3ccccn3)nn2)Cn2cc([N+](=O)[O-])nc2O1 [I19, (R)-2-Methyl-6-nitro-2-((4-((pyridin-2-yloxy)methyl)-1H-1,2,3-triazol-1-yl)methyl)-2,3-dihydroimidazo[2,1-b]oxazole] | 0.5 µg/mL (≈ 1.4 µM) | 0.25 µg/mL (≈ 0.7 µM) | 0.5 µg/mL (≈ 1.4 µM) |  | < 1 µg/mL
22 | Cc1ccccc1OCc1cn(C[C@@]2(C)Cn3cc([N+](=O)[O-])nc3O2)nn1 [I14, (R)-2-Methyl-6-nitro-2-((4-((o-tolyloxy)methyl)-1H-1,2,3-triazol-1-yl)methyl)-2,3-dihydroimidazo[2,1-b]oxazole] | 1 µg/mL (≈ 2.7 µM) | 1 µg/mL (≈ 2.7 µM) | 1 µg/mL (≈ 2.7 µM) |  | 
